Reference: PubChem BioAssay AID248 (DTP/NCI, 2004)
Values joined by “and” are separate entries in the source; they are usually repeats but may differ in a detail not shown here. Equal values may be shown once. Toxic doses and inconclusive results are not listed. Rule as the data show it: active = T/C of 150% or more; inactive = T/C below 125%.

System: L1210 leukemia ip in BDF1 mice, survival T/C
Test: NCI In Vivo Anticancer Drug Screen. Data for tumor model L1210 Leukemia (intraperitoneal) in B6D2F1 (BDF1) mice
Conditions: endpoint: mean survival time, higher = longer survival
Procedure, shortened: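 Transplanted-tumor mice were given test agent; controls received vehicle only. Survival readings from the two groups were divided (treated over control).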

[1] = dose: 100.0 mg/kg/injection, schedule: Q04DX003 (ip), vehicle: acetone
[2] = dose: 200.0 mg/kg/injection, schedule: Q04DX003 (ip), vehicle: acetone
[3] = dose: 400.0 mg/kg/injection, schedule: Q04DX003 (ip), vehicle: acetone
[4] = dose: 100.0 mg/kg/injection, schedule: Q04DX003 (ip), vehicle: Klucel (hydroxypropylcellulose) (HPC)
[5] = dose: 200.0 mg/kg/injection, schedule: Q04DX003 (ip), vehicle: Klucel (hydroxypropylcellulose) (HPC)
[6] = dose: 400.0 mg/kg/injection, schedule: Q04DX003 (ip), vehicle: Klucel (hydroxypropylcellulose) (HPC)
[7] = dose: 100.0 mg/kg/injection, schedule: Q01DX009 (ip), vehicle: Klucel (hydroxypropylcellulose) (HPC)
[8] = dose: 200.0 mg/kg/injection, schedule: Q01DX009 (ip), vehicle: Klucel (hydroxypropylcellulose) (HPC)
[9] = dose: 400.0 mg/kg/injection, schedule: Q01DX009 (ip), vehicle: Klucel (hydroxypropylcellulose) (HPC)
[10] = dose: 100.0 mg/kg/injection, schedule: Q01DX009 (ip), vehicle: saline with Tween-80
[11] = dose: 200.0 mg/kg/injection, schedule: Q01DX009 (ip), vehicle: saline with Tween-80
[12] = dose: 100.0 mg/kg/injection, schedule: Q04DX002 (ip), vehicle: Klucel (hydroxypropylcellulose) (HPC)
[13] = dose: 200.0 mg/kg/injection, schedule: Q04DX002 (ip), vehicle: Klucel (hydroxypropylcellulose) (HPC)
[14] = dose: 400.0 mg/kg/injection, schedule: Q04DX002 (ip), vehicle: Klucel (hydroxypropylcellulose) (HPC)
[15] = dose: 100.0 mg/kg/injection, schedule: Q01DX001 (ip), vehicle: other
[16] = dose: 200.0 mg/kg/injection, schedule: Q01DX001 (ip), vehicle: other

Measured: T/C

COC(=O)CCC(=O)c1cccc2ccccc12
inactive: [1] 91 % of control | [2] 96 % of control | [3] 95 % of control

COC(=O)c1sccc1C=O
inactive: dose: 50.0 mg/kg/injection, schedule: Q01DX001 (ip), vehicle: saline 103 % of control | dose: 100.0 mg/kg/injection, schedule: Q01DX001 (ip), vehicle: saline 100 % of control | [4] 100 % of control | [1] 98 % of control | dose: 200.0 mg/kg/injection, schedule: Q01DX001 (ip), vehicle: saline 100 % of control | [5] 104 % of control | [2] 102 % of control | dose: 400.0 mg/kg/injection, schedule: Q01DX001 (ip), vehicle: saline 97 % of control | [6] 105 % of control | [3] 89 % of control

Cc1cc(C)c(NC(=O)Nc2ccccc2C)c(C)c1
inactive: [7] 97 % of control | [4] 108 % of control | [8] 103 % of control | [5] 98 % of control | [9] 99 % of control | [6] 94 % of control

O=C(c1ccccc1Br)C1C(c2ccccc2)N1C1CCCCC1 (stereo not given)
inactive: dose: 50.0 mg/kg/injection, schedule: Q04DX003 (ip), vehicle: Klucel (hydroxypropylcellulose) (HPC) 102 % of control | [4] 102 % of control | [5] 98 % of control | [6] 93 % of control

O=[N+]([O-])c1ccc(Cl)c2nonc12
inactive: dose: 1.65 mg/kg/injection, schedule: Q04DX002 (ip), vehicle: Klucel (hydroxypropylcellulose) (HPC) 89 % of control | dose: 3.12 mg/kg/injection, schedule: Q04DX002 (ip), vehicle: Klucel (hydroxypropylcellulose) (HPC) 92 % of control | dose: 6.25 mg/kg/injection, schedule: Q04DX002 (ip), vehicle: Klucel (hydroxypropylcellulose) (HPC) 94 % of control

O=[N+]([O-])c1ccc(N=N/C(=N\Nc2ccccc2)c2ccccc2)cc1
inactive: [7] 89 % of control | [8] 89 % of control | [9] 94 % of control

OC1/C(=C/c2ccccc2)c2cccc3cccc1c23 (stereo not given)
inactive: dose: 50.0 mg/kg/injection, schedule: Q01DX009 (ip), vehicle: saline with Tween-80 90 % of control | [10] 93 % of control | [11] 93 % of control

CC(=O)OC1(C(C)=O)CCC2C3CC(C)(O)C4=CC(=O)CCC4(C)C3CCC21C (stereo not given)
inactive: dose: 25.0 mg/kg/injection, schedule: Q01DX009 (ip), vehicle: Klucel (hydroxypropylcellulose) (HPC) 97 % of control | dose: 50.0 mg/kg/injection, schedule: Q01DX009 (ip), vehicle: Klucel (hydroxypropylcellulose) (HPC) 95 % of control | [7] 103 % of control | [8] 101 % of control

Nc1cc2c3c(cccc3c1Br)C(=O)NC2=O
inactive: [12] 121 % of control | [13] 96 % of control | [14] 107 % of control

O=C(/C=C/C=[N+](/[O-])O)c1cncc(F)c1
inactive: dose: 100.0 mg/kg/injection, schedule: Q04DX002 (ip), vehicle: saline 93 % of control | dose: 200.0 mg/kg/injection, schedule: Q04DX002 (ip), vehicle: saline 101 % of control | dose: 400.0 mg/kg/injection, schedule: Q04DX002 (ip), vehicle: saline 93 % of control

CC(=O)Nc1cc(NC(C)=O)c2nc(CN(C)c3ccc(C(=O)O)cc3)cnc2n1
inactive: [15] 101 % of control | [16] 98 % of control | dose: 400.0 mg/kg/injection, schedule: Q01DX001 (ip), vehicle: other 97 % of control

COc1ccc(OC)c(NC(=O)Nc2cc([N+](=O)[O-])ccc2C)c1
inactive: [13] 92 % of control | [14] 100 % of control

CCC[CH2][Sn]1([CH2]CCC)[O]CC2(CCCCC2)C[O]1
inactive: dose: 2.5 mg/kg/injection, schedule: Q04DX002 (ip), vehicle: saline + alcohol 94 % of control and 102 % of control | dose: 5.0 mg/kg/injection, schedule: Q04DX002 (ip), vehicle: saline + alcohol 105 % of control and 118 % of control | dose: 10.0 mg/kg/injection, schedule: Q04DX002 (ip), vehicle: saline + alcohol 105 % of control | dose: 20.0 mg/kg/injection, schedule: Q04DX002 (ip), vehicle: saline + alcohol 93 % of control and 105 % of control

Cc1cccc(OC(=O)Nc2cccc(Cl)c2)c1
inactive: dose: 100.0 mg/kg/injection, schedule: Q01DX009 (ip), vehicle: carboxymethylcellulose (CMC) 98 % of control and 110 % of control | [12] 95 % of control | dose: 100.0 mg/kg/injection, schedule: Q04DX002 (ip), vehicle: carboxymethylcellulose (CMC) 93 % of control and 120 % of control and 92 % of control | dose: 100.0 mg/kg/injection, schedule: Q04DX003 (ip), vehicle: carboxymethylcellulose (CMC) 103 % of control | dose: 200.0 mg/kg/injection, schedule: Q01DX009 (ip), vehicle: carboxymethylcellulose (CMC) 96 % of control and 104 % of control | [13] 92 % of control | dose: 200.0 mg/kg/injection, schedule: Q04DX002 (ip), vehicle: carboxymethylcellulose (CMC) 97 % of control and 103 % of control and 106 % of control | dose: 200.0 mg/kg/injection, schedule: Q04DX003 (ip), vehicle: carboxymethylcellulose (CMC) 110 % of control | [14] 95 % of control | dose: 400.0 mg/kg/injection, schedule: Q04DX002 (ip), vehicle: carboxymethylcellulose (CMC) 98 % of control and 100 % of control and 124 % of control | dose: 400.0 mg/kg/injection, schedule: Q04DX003 (ip), vehicle: carboxymethylcellulose (CMC) 94 % of control

C=CC(=O)N1CN(C(=O)C=C)CN(C(=O)C=C)C1
inactive: dose: 1.25 mg/kg/injection, schedule: Q01DX009 (ip), vehicle: saline 99 % of control | dose: 2.5 mg/kg/injection, schedule: Q01DX009 (ip), vehicle: saline 99 % of control | dose: 5.0 mg/kg/injection, schedule: Q01DX009 (ip), vehicle: saline 104 % of control

CN(C)c1ccc([N+](=O)[O-])cc1[N+](=O)[O-]
inactive: [15] 111 % of control | [16] 101 % of control

CNc1ncnc2c1ncn2C1CC(CO)C(O)C1O (stereo not given)
inactive: dose: 100.0 mg/kg/injection, schedule: Q01DX009 (ip), vehicle: saline 98 % of control

NC(=S)N/N=C/c1cnccn1
inactive: dose: 13.0 mg/kg/injection, schedule: Q03HX032 (ip), vehicle: saline with Tween-80 98 % of control | dose: 20.0 mg/kg/injection, schedule: Q03HX032 (ip), vehicle: saline with Tween-80 101 % of control | dose: 29.0 mg/kg/injection, schedule: Q03HX032 (ip), vehicle: saline with Tween-80 113 % of control | dose: 44.0 mg/kg/injection, schedule: Q03HX032 (ip), vehicle: saline with Tween-80 115 % of control | [11] 86 % of control

C(=C\c1ccccc1)/C[n+]1cccc2ccccc21
inactive: dose: 75.0 mg/kg/injection, schedule: Q01DX001 (ip), vehicle: saline 89 % of control

COc1cc(Cc2cc(OC)c(OC)cc2[N+](=O)[O-])c([N+](=O)[O-])cc1OC
inactive: dose: 100.0 mg/kg/injection, schedule: Q04DX003 (ip), vehicle: saline 108 % of control | dose: 200.0 mg/kg/injection, schedule: Q04DX003 (ip), vehicle: saline 108 % of control | dose: 400.0 mg/kg/injection, schedule: Q04DX003 (ip), vehicle: saline 120 % of control

C=CCN(CC=C)C(=O)Nc1ccc(Cl)c(C(F)(F)F)c1
inactive: [10] 97 % of control | [11] 105 % of control | dose: 400.0 mg/kg/injection, schedule: Q01DX009 (ip), vehicle: saline with Tween-80 110 % of control
